Like-named read-outs stand apart in the source and are kept apart here.
Columns and labels:
[1] = cited from earlier work
[2] = Descriptive sensory evaluation, peppermint mouthwash, 8 panelists; conditions: Maltitol 6.44% + Reb B 50 or 150 ppm
Protocol: A commercial unsweetened (no sugar or sweetener) peppermint mouthwash product (Brand: The Natural Dentist) was used to determine the effect of Reb B with other sweetener, as example maltitol, a sugar alcohol on the sensory profile of mouthwash. Mouthwash samples were sweetened with Maltitol (6.44%), Maltitol+Reb B (50 ppm), Maltitol+Reb B (150 ppm). Descriptive sensory evaluation was conducted with 8 panelists. They evaluated several attributes including sweet onset, total sweetness, bitterness, rounded sweetness, flavor intensity, astringency, mouth coating, sweet lingering, bitter lingering, aftertaste mouth coating, tartness.

[3] = Sugar equivalent sweetness of sweetener/Reb B combinations in plain water, trained panel; conditions: Reb B at 50, 150 and 300 ppm with sweeteners of Table 2
Protocol: In one embodiment, Reb B was combined (at 50, 150 and 300 ppm) with several sweeteners listed in Table 2 to make solutions in plain water. Some of the sweeteners were tested at two different concentrations to obtain around 2% sugar equivalent sweetness without any Reb B. A trained panel conducted sensory tests to determine the effect of the addition of different amounts of Reb B to each sweetener on overall sweetness quality and intensity as shown in Table 4.

[4] = Descriptive sensory evaluation of sweetener solutions in water by trained panel
Protocol: In another embodiment, Stevia sweetener (Reb A, Reb B or blends thereof) solutions were made by completely dissolving Stevia into distilled water. Solutions were tasted and evaluated by a trained panel. […] All solutions were made with different mass ratio of Reb A and Reb Bas shown in FIG. 3 to get the 7% sweetness equivalent. Reb B a mount varied between 20 mg/kg to 150 mg/kg.
All sensory attributes were rated by trained panelists on a scale of zero (0) to ten (10). Samples were presented in a randomized fashion and labeled with three-digit codes.
Sweet Onset—This attribute describes the time at which panelists perceived sweetness upon placing the sample in the mouth. A score of zero indicates immediate identification of sweetness, whereas a score of ten indicates a long delay in the time that sweetness was perceived.
Total Sweetness—This attribute describes the highest intensity of sweetness perceived during tasting. A score of zero indicates no sweetness, while a score of ten indicates very high sweetness.
Bitterness—This attribute describes the highest intensity of bitterness perceived during tasting. A score of zero indicates no bitterness, while a score of ten indicates very high bitterness.
Rounded Sweetness—This attribute describes the duration of sweetness while samples are in the mouth.
Flavor Intensity—This attribute describes the highest intensity of flavor perceived during tasting. A score of zero indicates no flavor, while a score of ten indicates very high flavor.
Astringency—This attribute describes the highest intensity of astringency perceived during tasting. A score of zero indicates no astringency, while a score of ten indicates very high astringency.
Mouth Coating—This attribute describes the highest intensity of sweetness coating perceived while samples are in the mouth.
Sweet Lingering—This attribute describes the highest intensity of sweetness perceived after the sample has been swallowed.
Bitter Lingering—This attribute describes the highest intensity of bitterness perceived after the sample has been swallowed.
Aftertaste Mouth Coating—This attribute describes the highest intensity of sweetness coating perceived after the sample has been swallowed.
Tartness—This attribute describes the highest intensity of tartness perceived during tasting. A score of zero indicates no tartness, while a score of ten indicates very high tartness.
Cooling Sensation—This attribute describes the highest intensity of cooling sensation perceived during tasting. A score of zero indicates no cooling sensation, while a score of ten indicates very high cooling sensation.
Water solution of mogroside (100 ppm) sweetener was tested against solutions made with mogroside (100 ppm)+Reb B (300 ppm) and mogroside (100 ppm)+Reb A/B (Example 3) blend (128 ppm) by a 13 members trained panel.
Water solution of sucralose (40 ppm) was tested against solutions made with sucralose (40 ppm)+Reb B (150 ppm) and sucralose (40 ppm)+Reb A/Reb B (Example 3) blend (68 ppm) by a 13 members trained panel.
Water solution of erythritol (5%) was tested against solutions made with erythritol (5%)+Reb B (50 ppm) and erythritol (5%)+Reb A/Reb B (Example 3) blend (22 ppm) by a 13 members trained panel.
Fructo-oligosaccharide or FOS solution (21%) was tested against solutions made with FOS (21%)+Reb B (150 ppm) and FOS (21%)+Reb A/Reb B (Example 3) blend (68 ppm) by a 13 members trained panel.

[5] = room temperature; reported values; cited from earlier work
[6] = Sweetness factor (SF) determination by trained panel in water; conditions: for Calculated SF (sweetness factor) / Usage Level, % (concentration corresponding to 5% sucrose equivalent sweetness): in water, 5% SE
Protocol: The sweetness factors for different sweetener from all major groups were measured by tasting several concentrations of each sweetener in water by trained panel. From the sensory test at a, the concentration (%) that corresponds to the 5% sucrose equivalent (SE) sweetness were estimated and listed in Table 2. The sweetness equivalent (SE) of high intensity sweeteners (HIS) varies according to the target sugar equivalent sweetness levels, that are tested as shown in Table 3.

[7] = assay type: physicochemical
Protocol: Hereinafter, unless specified otherwise the solubility of material is determined in reverse osmosis (RO) water at room temperature. Where the solubility is expressed as “%” it to be understood as number of grams of material soluble in 100 grams of solvent.
The temperature was increased at 1° C. per minute to 121° C. The mixture was maintained at 121° C. for 1 hour and then the temperature was decreased to 80° C., at 1° C. per minute, and the obtained solution was spray dried using YC-015 laboratory spray drier (Shanghai Pilotech Instrument & Equipment Co. Ltd., China) operating at 175° C. inlet and 100° C. outlet temperature. Solution was maintained at 80° C. to prevent premature crystallization.
Solubility were evaluated for Reb A, Reb B, mechanical blends of Reb A and Reb B powders of different ratios, and mixtures of Reb A and Reb B prepared according to process described in EXAMPLE 1.

[8] = Descriptive sensory evaluation, lime-tequila margarita alcoholic beverage; conditions: FOS 21% + Reb B 150 ppm, about 10% alcohol
Protocol: The Fructo-oligosaccharide (FOS) sweetener and the steviol glycosides compositions (described in EXAMPLE 12) were used for making an alcoholic beverage—lime-tequila margarita drink using Margarita pre-mix from FIS (Flavor International Systems), recommended usage was 0.4%. Prepared Lime Tequila Margarita blank containing about 10% alcohol, no sugar added. To sweeten the beverage, used FOS (21%), FOS+Reb B (150 ppm), and FOS+Reb A/Reb B (68 ppm). Descriptive Sensory evaluation was conducted with 8-13 panelists.

[9] = Chang and Cook 1983; cited from earlier work
[10] = Trained panel evaluation, chocolate milk; conditions: sugar-equivalent sweetness around 5.5%
Protocol: A series of samples were prepared to having sugar-equivalent sweetness around 5.5%. The control sample was sweetened with 5.5% sugar the test samples were sweetened with different ratios of Reb A/Reb as shown in Table 7 below. The samples were evaluated by a trained panel and screened for overall sweetness, bitterness, astringency, mouth coating, flavor intensity, acidity/tartness, sweet lingering and bitter lingering.

[11] = Trained panel evaluation, no fat (NF) yogurt; conditions: formulas of Table 6
Protocol: Samples were prepared according to formulas outlined below in Table 6. Samples included a full sugar reference, an aspartame reference, a Reb A control and several test samples with a Reb A/Reb B blends. The samples were evaluated by a trained panel and screened for overall sweetness, bitterness, astringency, mouth coating, flavor intensity, acidity/tartness, sweet lingering and bitter lingering.

[12] = sensory evaluations, Crammer and Ikan 1986

Compound	times sweeter than sucrose [1, 12]	water solubility [5]	Sweetness factor ([6]; SE level 5.0%)	Sweetness factor ([6]; SE level 7.5%)	Sweetness factor ([6]; SE level 10.0%)	Sweetness factor ([6]; SE level […])	Calculated SF (sweetness factor) [6]	Usage Level, % (concentration corresponding to 5% sucrose equivalent sweetness) [6] [%]	stability in carbonated beverages [9]	other results
C=C1C[C@@]23CC[C@H]4[C@@](C)(CCC[C@@]4(C)C(=O)O)[C@@H]2CC[C@]1(O[C@@H]1O[C@H](CO)[C@@H](O)[C@H](O[C@@H]2O[C@H](CO)[C@@H](O)[C@H](O)[C@H]2O)[C@H]1O[C@@H]1O[C@H](CO)[C@@H](O)[C@H](O)[C@H]1O)C3 [Reb B, Rebaudioside B]	300-350 times	about 0.1%	126	95	59	146	126	0.0397	–	all other sensory attributes [2]: generally unchanged; sweetness onset and total sweetness [2]: created an earlier sweetness onset, and higher total sweetness; effect of addition of Reb B on overall sweetness quality and intensity [3]: generally increased upfront sweetness, made the sweetness profile rounded and contributed to sweetness lingering at a higher level; sweetness and sweetness profile versus FOS solution ([4]; FOS 21% + Reb B 150 ppm or Reb A/Reb B 68 ppm): significantly higher sweetness and made the sweetness profile rounded; onset of sweetness, peak sweetness and sweetness lingering versus erythritol solution ([4]; water, erythritol 5% + Reb B 50 ppm): improved the onset of sweetness and the peak sweetness without increasing the sweetness lingering; taste (sweetness, bitterness, cooling effect) versus erythritol solution ([4]; water, erythritol 5% + Reb B 50 ppm or Reb A/Reb B 22 ppm): improved the taste of erythritol sample significantly by increasing the sweetness and reducing the bitterness and cooling effect; taste attributes versus mogroside solution ([4]; water, mogroside 100 ppm + Reb B 300 ppm or Reb A/B 128 ppm): increases sweetness level significantly, improves the onset of sweetness and decreases the bitterness; onset of sweetness and off taste versus sucralose solution ([4]; water, sucralose 40 ppm + Reb B 150 ppm): improved the onset of sweetness and decreased the off taste slightly; sweetness level versus sucralose solution ([4]; water, sucralose 40 ppm + Reb B 150 ppm or Reb A/Reb B 68 ppm): significantly higher sweetness level; Solubility in water [7]: No*; flavor intensity, bitter lingering and tartness [8]: decrease in flavor intensity, bitter lingering, and tartness; sweetness profile of the alcoholic beverage [8]: sweetness onset was earlier in the profile, and there was an increase in total sweetness and the sweetness profile was more rounded
C=C1C[C@@]23CC[C@H]4[C@@](C)(CCC[C@@]4(C)C(=O)O[C@@H]4O[C@H](CO)[C@@H](O)[C@H](O)[C@H]4O)[C@@H]2CC[C@]1(O[C@@H]1O[C@H](CO)[C@@H](O)[C@H](O)[C@H]1O[C@@H]1O[C@H](CO)[C@@H](O)[C@H](O)[C@H]1O)C3 [stevioside]	–	–	–	–	–	–	–	–	heat and pH stability	times sweeter than sucrose ([1]; as usually found, literature): 110-270 times
C=C1C[C@@]23CC[C@H]4[C@@](C)(CCC[C@@]4(C)C(=O)O[C@@H]4O[C@H](CO)[C@@H](O)[C@H](O)[C@H]4O)[C@@H]2CC[C@]1(O[C@@H]1O[C@H](CO)[C@@H](O)[C@H](O[C@@H]2O[C@H](CO)[C@@H](O)[C@H](O)[C@H]2O)[C@H]1O[C@@H]1O[C@H](CO)[C@@H](O)[C@H](O)[C@H]1O)C3 [Reb A, Rebaudioside A]	350-450 times	0.8%	290	250	200	400	291	0.0172	heat and pH stability	sweetness and flavor profile [10]: separate peaks for sweetness, dairy notes, and cocoa notes; sensory attributes among major steviol glycosides ([1]; Tanaka 1987, Phillips 1989): the least astringent, the least bitter, and the least persistent aftertaste; acidity [11]: enhanced the acidity of the yogurt; bitterness [11]: bitterness at the end; water solubility [7]: around 1%
